Like-named read-outs stand apart in the source and are kept apart here. Where a SMILES comes first, the peptide text is derived from it. Bridges are numbered along the chain shown (N, C = ends). [ ]: non-standard residue; d: D form. The star is where a group is joined. DOTA = O=C(O)CN1CCN(CC(=O)O)CCN(CC(=O)*)CCN(CC(=O)O)CC1; Pro(cis-4-F) = O=C(O)[C@@H]1C[C@H](F)CN1; NMeY = CN[C@@H](Cc1ccc(O)cc1)C(=O)O; Hyp = O=C(O)[C@@H]1C[C@@H](O)CN1; hPhe = N[C@@H](CCc1ccccc1)C(=O)O; Pentanoyl(4-Me) = CC(C)CCC(=O)*; Cit = NC(=O)NCCC[C@H](N)C(=O)O; αMeL = CC(C)C[C@](C)(N)C(=O)O; NMeNle = CCCC[C@H](NC)C(=O)O; hCys = N[C@@H](CCS)C(=O)O; Nle = CCCC[C@H](N)C(=O)O; Nva = CCC[C@H](N)C(=O)O; Pentanoyl = CCCCC(=O)*; Aib = CC(C)(N)C(=O)O
How the values were obtained:
[1] = target: T1, uPAR-expressing HEC-265 human endometrial adenocarcinoma cells (Homo sapiens, UniProt Q03405); test: Competitive FACS binding assay; conditions: pIC50 category of FACS binding
T1 construct: Cell surface uPAR-expressing HEC-265 human endometrial adenocarcinoma cells; host or cells: HEC-265
T1 sequence (Q03405 23-335): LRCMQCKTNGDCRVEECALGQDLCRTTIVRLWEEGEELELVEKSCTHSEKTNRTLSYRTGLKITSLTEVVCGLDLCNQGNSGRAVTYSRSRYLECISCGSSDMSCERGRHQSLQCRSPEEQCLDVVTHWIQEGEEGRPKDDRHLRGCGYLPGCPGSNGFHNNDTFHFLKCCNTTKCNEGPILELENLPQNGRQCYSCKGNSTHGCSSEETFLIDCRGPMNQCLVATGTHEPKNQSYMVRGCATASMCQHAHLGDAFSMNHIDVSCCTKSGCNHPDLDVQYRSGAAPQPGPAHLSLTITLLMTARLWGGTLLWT
Procedure, shortened: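 HEC-265 cells incubated 1 h at 4 °C with 10 nM biotinylated uPAR peptide tracer plus increasing test compound, then stained with APC-streptavidin on ice. Median APC fluorescence by flow cytometry; 4PL fit gives pIC50.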

human uPAR (uPAR-Fc) = target: T2, human uPAR (uPAR-Fc) (Homo sapiens, UniProt Q03405); test: Surface plasmon resonance (SPR) assay, single cycle kinetics; assay type: binding; conditions: pKD category for uPAR SPR activity assay, uPAR-Fc on Protein A-Chip, 25°C, read-out: pKD CAT (converted)
T2 construct: comprising amino acids Leu23-Arg303 according to UniProt entry Q03405.1; purchased R&D Systems 10378-UK-100
T2 sequence (Q03405 23-303): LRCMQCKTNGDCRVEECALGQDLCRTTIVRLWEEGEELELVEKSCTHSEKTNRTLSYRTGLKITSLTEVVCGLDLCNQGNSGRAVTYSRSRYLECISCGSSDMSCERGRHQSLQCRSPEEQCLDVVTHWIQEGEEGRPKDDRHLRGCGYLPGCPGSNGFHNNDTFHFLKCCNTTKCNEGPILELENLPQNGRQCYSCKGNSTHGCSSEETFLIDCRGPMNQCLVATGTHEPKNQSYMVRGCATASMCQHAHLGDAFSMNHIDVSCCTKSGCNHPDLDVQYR
Procedure, shortened: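 uPAR-Fc (Leu23-Arg303 extracellular domains, human IgG1 Fc) captured on Protein A chip to ~2000 RU; single-cycle kinetics at 25°C in HEPES running buffer pH 7.4 with 0.1% DMSO. KD from double-referenced sensorgrams fitted to 1:1 Langmuir model, reported as pKD.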

IC50 [1] | Kd (human uPAR (uPAR-Fc)) | Kd (human uPAR (uPAR-Fc); single cycle kinetics) | Compound
12.6 to 31.6 nM | 1.58 to 10 nM | – | CC[C@H](C)[C@@H]1NC(=O)[C@@H](C)NC(=O)[C@@H]2CCCN2C(=O)[C@H](Cc2ccccc2)NC(=O)[C@H](Cc2ccc(O)cc2)NC(=O)C(C)(C)NC(=O)[C@H](CCCNC(N)=O)NC(=O)[C@@H](NC(=O)CCC(C)C)CSSC[C@@H](C(N)=O)NC(=O)[C@H](CC(C)C)NC1=O [UPAR-269, iHex-[Cys-Cit-Aib-Tyr-Phe-Pro-ala-Ile-Leu-Cys]-NH2] ({Pentanoyl(4-Me)}-C[Cit][Aib]YFP[dA]ILC-NH2; disulfide 1-10)
12.6 to 31.6 nM | 1.58 to 10 nM | – | CCCCC(=O)N[C@H]1CCSSC[C@@H](C(N)=O)NC(=O)[C@H](CCC)NC(=O)[C@H]([C@@H](C)CC)NC(=O)[C@@H]2C[C@@H](O)CN2C(=O)[C@@H]2CCCN2C(=O)[C@H](Cc2ccccc2)NC(=O)[C@H](Cc2ccc(O)cc2)NC(=O)[C@H](CCC(N)=O)NC(=O)[C@H](CCCNC(=N)N)NC1=O [UPAR-300, Pent-[Hcy-Arg-Gln-Tyr-Phe-Pro-Hyp-Ile-Nva-Cys]-NH2] (Pentanoyl-[hCys]RQYFP[Hyp]I[Nva]C-NH2; disulfide 1-10)
≤ 10 nM | – | < 1.58 nM | CCCC[C@H](NC)C(=O)N[C@H]1CSSC[C@@H](C(N)=O)NC(=O)[C@H](CCC)NC(=O)[C@H]([C@@H](C)CC)NC(=O)[C@@H]2C[C@@H](O)CN2C(=O)[C@@H]2C[C@H](F)CN2C(=O)[C@H](Cc2ccccc2)NC(=O)[C@H](Cc2ccc(O)cc2)NC(=O)[C@H](CCCCNC(=O)CN2CCN(CC(=O)O)CCN(CC(=O)O)CCN(CC(=O)O)CC2)NC(=O)[C@H]([C@@H](C)O)NC1=O [UPAR-428, H-Nmb-[Cys-Thr-Lys(DOTA)-Tyr-Phe-4Cfp-Hyp-Ile-Nva-Cys]-NH2] (H-[NMeNle]CTK(DOTA)YF[Pro(cis-4-F)][Hyp]I[Nva]C-NH2; disulfide 2-11)
≤ 10 nM | – | < 1.58 nM | CCCCC(=O)N[C@H]1CSSC[C@@H](C(N)=O)NC(=O)[C@H](CCC)NC(=O)[C@H](CCc2ccccc2)NC(=O)[C@@H]2C[C@@H](O)CN2C(=O)[C@@H]2CCCN2C(=O)[C@H](Cc2ccccc2)NC(=O)[C@H](Cc2ccc(O)cc2)NC(=O)[C@H](CCC(N)=O)NC(=O)[C@H](CCCNC(=N)N)NC1=O [UPAR-461, Pent-[Cys-Arg-Gln-Tyr-Phe-Pro-Hyp-Hfe-Nva-Cys]-NH2] (Pentanoyl-CRQYFP[Hyp][hPhe][Nva]C-NH2; disulfide 1-10)
39.8 to 100 nM | – | 10 to 100 nM | CCCC[C@@H]1NC(=O)[C@H](CCCNC(=N)N)NC(=O)[C@@H](NC(=O)[C@H](CC(C)C)NC(=O)[C@H](CC(=O)O)NC(C)=O)CSSC[C@@H](C(N)=O)NC(=O)[C@H](CC(C)C)NC(=O)[C@@H](CC(C)C)NC(=O)[C@H](C)NC(=O)[C@@H]2CCCN2C(=O)[C@H](Cc2ccccc2)NC(=O)[C@H](Cc2ccc(O)cc2)NC1=O [UPAR-420, Ac-Asp-Leu-[Cys-Arg-Nle-Tyr-Phe-Pro-Ala-leu-Leu-Cys]-NH2] (Ac-DLCR[Nle]YFPA[dL]LC-NH2; disulfide 3-12)
12.6 to 31.6 nM | 1.58 to 10 nM | – | CCCCC(=O)N[C@H]1CSSC[C@@H](C(N)=O)NC(=O)[C@](C)(CC(C)C)NC(=O)[C@H]([C@@H](C)CC)NC(=O)[C@@H]2C[C@@H](O)CN2C(=O)[C@@H]2CCCN2C(=O)[C@H](Cc2ccccc2)NC(=O)[C@H](Cc2ccc(O)cc2)NC(=O)[C@H](CCC(N)=O)NC(=O)[C@H](CCCNC(=N)N)NC1=O [UPAR-156, Pent-[Cys-Arg-Gln-Tyr-Phe-Pro-Hyp-Ile-Aml-Cys]-NH2] (Pentanoyl-CRQYFP[Hyp]I[αMeL]C-NH2; disulfide 1-10)
≤ 10 nM | < 1.58 nM | – | CC[C@H](C)[C@@H]1NC(=O)[C@H](CCCCNC(=O)CN2CCN(CC(=O)O)CCN(CC(=O)O)CCN(CC(=O)O)CC2)NC(=O)[C@@H]2CCCN2C(=O)[C@H](Cc2ccccc2)NC(=O)[C@H](Cc2ccc(O)cc2)NC(=O)[C@H](CCC(N)=O)NC(=O)[C@H](CCCNC(N)=O)NC(=O)[C@@H](NC(=O)CCC(C)C)CSSC[C@@H](C(N)=O)NC(=O)[C@H](CC(C)C)NC1=O [UPAR-145, iHex-[Cys-Cit-Gln-Tyr-Phe-Pro-Lys(DOTA)-Ile-Leu-Cys]-NH2] ({Pentanoyl(4-Me)}-C[Cit]QYFPK(DOTA)ILC-NH2; disulfide 1-10)
≥ 126 nM | > 100 nM | – | CC[C@H](C)[C@@H]1NC(=O)[C@@H](C)NC(=O)[C@@H]2CCCN2C(=O)[C@H](Cc2ccccc2)NC(=O)[C@H](Cc2ccc(O)cc2)N(C)C(=O)[C@H](CCC(N)=O)NC(=O)[C@H](CCCNC(N)=O)NC(=O)[C@@H](NC(=O)CCC(C)C)CSSC[C@@H](C(N)=O)NC(=O)[C@H](CC(C)C)NC1=O [UPAR-285, iHex-[Cys-Cit-Gln-Nmy-Phe-Pro-ala-Ile-Leu-Cys]-NH2] ({Pentanoyl(4-Me)}-C[Cit]Q[NMeY]FP[dA]ILC-NH2; disulfide 1-10)
